Earlier results as cited in US20210228483A1, “LOW GLYCEMIC GUMMY COMPOSITION AND METHODS OF MAKING AND USING THEREOF” (Seattle Gummy Company, priority 2018, published 2021).

What was measured:
blood glucose levels = details: as shown in FIG. 3 (trehalose) and FIG. 4 (isomaltulose)
[1] = in vivo

SMILES | spike in glucose levels (blood glucose levels) | GI value (glycemic index) [1]
OC[C@H]1O[C@H](OC[C@H]2OC(O)(CO)[C@@H](O)[C@@H]2O)[C@H](O)[C@@H](O)[C@@H]1O (stereo partly shown) [isomaltulose] | does not cause a spike in glucose levels | about 30
OC[C@H]1O[C@@](CO)(O[C@H]2O[C@H](CO)[C@@H](O)[C@H](O)[C@H]2O)[C@@H](O)[C@@H]1O [sucrose, reference compound] |  | 63
OC[C@H]1O[C@H](O[C@H]2O[C@H](CO)[C@@H](O)[C@H](O)[C@H]2O)[C@H](O)[C@@H](O)[C@@H]1O [trehalose] | does not cause a spike in glucose levels | 
